Source: article PMC5218480 (PLoS ONE, 2017)

System: MV-4-11 cells
Experiment: Gene expression microarray analysis (Affymetrix PrimeView) and GSEA
Assay type: cell-based, human
Design: RFU PODN (11730768_x_at) / Fold change /veh PODN (11730768_x_at) / RFU LINC00158 (11744669_a_at) / Fold change /veh LINC00158 (11744669_a_at) / RFU DUSP10 (11751237_a_at) / Fold change /veh DUSP10 (11751237_a_at) / RFU ID3 (11757404_x_at) / Fold change /veh ID3 (11757404_x_at) / RFU PLEKHG5 (11737974_s_at) / Fold change /veh PLEKHG5 (11737974_s_at) / RFU LRRC4B (11730491_at) / Fold change /veh LRRC4B (11730491_at) / RFU GIMAP4 (11747438_a_at) / Fold change /veh GIMAP4 (11747438_a_at) / RFU KRT8 (11758183_x_at) / Fold change /veh KRT8 (11758183_x_at) / RFU CNN1 (11734310_a_at) / Fold change /veh CNN1 (11734310_a_at) / RFU VPS37D (11726825_at) / Fold change /veh VPS37D (11726825_at) / RFU C10orf10 (11716522_x_at) / Fold change /veh C10orf10 (11716522_x_at) / RFU KIR2DL2 /// KIR2DL4 /// KIR2DL5A /// KIR2DL5B /// KIR2DS1 /// KIR2DS2 /// KIR2DS3 /// KIR2DS4 /// KIR3DL3 /// KIR3DL3 /// KIR3DS1 (11738374_at) / Fold change /veh KIR2DL2 /// KIR2DL4 /// KIR2DL5A /// KIR2DL5B /// KIR2DS1 /// KIR2DS2 /// KIR2DS3 /// KIR2DS4 /// KIR3DL3 /// KIR3DL3 /// KIR3DS1 (11738374_at) / RFU C1QL1 (11718748_at) / Fold change /veh C1QL1 (11718748_at) / RFU TMPRSS4 (11747572_a_at) / Fold change /veh TMPRSS4 (11747572_a_at) / RFU HAMP (11756126_x_at) / Fold change /veh HAMP (11756126_x_at) / RFU RNFT2 (11725882_a_at) / Fold change /veh RNFT2 (11725882_a_at) / RFU NR4A2 (11747474_a_at) / Fold change /veh NR4A2 (11747474_a_at) / RFU ABCC12 (11746883_a_at) / Fold change /veh ABCC12 (11746883_a_at) / RFU TMEM136 (11760407_x_at) / Fold change /veh TMEM136 (11760407_x_at) / RFU CLDN22 /// WWC2 (11732394_at) / Fold change /veh CLDN22 /// WWC2 (11732394_at) / RFU HLA-DPB1 (11760878_x_at) / Fold change /veh HLA-DPB1 (11760878_x_at) / RFU SPINT1 (11716480_a_at) / Fold change /veh SPINT1 (11716480_a_at) / RFU GAP43 (11754022_s_at) / Fold change /veh GAP43 (11754022_s_at) / RFU A4GNT (11735810_at) / Fold change /veh A4GNT (11735810_at) / RFU PRB3 (11715151_x_at) / Fold change /veh PRB3 (11715151_x_at) / RFU TUBB4B (11761932_at) / Fold change /veh TUBB4B (11761932_at) / RFU CAPN14 (11732068_a_at) / Fold change /veh CAPN14 (11732068_a_at) / RFU TMCC2 (11721928_a_at) / Fold change /veh TMCC2 (11721928_a_at) / RFU IRGQ (11745062_a_at) / Fold change /veh IRGQ (11745062_a_at) / RFU FAM174B (11720279_a_at) / Fold change /veh FAM174B (11720279_a_at) / RFU TMPRSS4 (11748680_a_at) / Fold change /veh TMPRSS4 (11748680_a_at) / RFU FAM212B (11763350_a_at) / Fold change /veh FAM212B (11763350_a_at) / RFU PLEKHG5 (11743358_a_at) / Fold change /veh PLEKHG5 (11743358_a_at) / RFU ZSCAN30 (11745921_a_at) / Fold change /veh ZSCAN30 (11745921_a_at) / RFU CMKLR1 (11741424_a_at) / Fold change /veh CMKLR1 (11741424_a_at) / RFU LOC101060620 /// MAPK8IP1 (11723275_at) / Fold change /veh LOC101060620 /// MAPK8IP1 (11723275_at) / RFU SPTSSB (11747773_x_at) / Fold change /veh SPTSSB (11747773_x_at) / RFU PRSS12 (11739890_at) / Fold change /veh PRSS12 (11739890_at) / RFU BIN1 (11741810_x_at) / Fold change /veh BIN1 (11741810_x_at) / RFU WNT11 (11732464_a_at) / Fold change /veh WNT11 (11732464_a_at) / RFU C10orf10 (11716521_a_at) / Fold change /veh C10orf10 (11716521_a_at) / RFU C5orf56 (11738089_at) / Fold change /veh C5orf56 (11738089_at) / RFU CYB561 (11721691_x_at) / Fold change /veh CYB561 (11721691_x_at) / RFU ANKRD19P (11752326_a_at) / Fold change /veh ANKRD19P (11752326_a_at) / RFU OR2T12 /// OR2T33 /// OR2T8 (11738714_s_at) / Fold change /veh OR2T12 /// OR2T33 /// OR2T8 (11738714_s_at) / RFU VCAN (11748164_a_at) / Fold change /veh VCAN (11748164_a_at) / RFU JSRP1 (11732532_at) / Fold change /veh JSRP1 (11732532_at) / RFU KRTAP10-11 (11738290_x_at) / Fold change /veh KRTAP10-11 (11738290_x_at) / RFU MYO3A (11730013_a_at) / Fold change /veh MYO3A (11730013_a_at) / RFU EBF3 (11725865_a_at) / Fold change /veh EBF3 (11725865_a_at) / RFU CAMK2N1 (11719241_x_at) / Fold change /veh CAMK2N1 (11719241_x_at) / RFU C5orf56 (11738088_a_at) / Fold change /veh C5orf56 (11738088_a_at) / RFU OLFML3 (11715873_a_at) / Fold change /veh OLFML3 (11715873_a_at) / RFU LOC100653217 /// NTM (11731650_a_at) / Fold change /veh LOC100653217 /// NTM (11731650_a_at) / RFU MAPK11 (11762145_a_at) / Fold change /veh MAPK11 (11762145_a_at) / RFU FIZ1 (11724087_x_at) / Fold change /veh FIZ1 (11724087_x_at) / RFU OASL (11726364_x_at) / Fold change /veh OASL (11726364_x_at) / RFU SOX15 (11748057_x_at) / Fold change /veh SOX15 (11748057_x_at) / RFU CD79A (11719716_a_at) / Fold change /veh CD79A (11719716_a_at) / RFU HIST1H1D (11736915_at) / Fold change /veh HIST1H1D (11736915_at) / RFU CASKIN2 (11723855_a_at) / Fold change /veh CASKIN2 (11723855_a_at) / RFU LOC730098 (11760151_x_at) / Fold change /veh LOC730098 (11760151_x_at) / RFU OR4N2 (11742367_at) / Fold change /veh OR4N2 (11742367_at) / RFU PRRT2 (11749266_a_at) / Fold change /veh PRRT2 (11749266_a_at) / RFU SNX32 (11753110_a_at) / Fold change /veh SNX32 (11753110_a_at) / RFU CDHR5 (11726645_a_at) / Fold change /veh CDHR5 (11726645_a_at) / RFU RCAN1 (11760418_a_at) / Fold change /veh RCAN1 (11760418_a_at) / RFU FAM167A (11723789_a_at) / Fold change /veh FAM167A (11723789_a_at) / RFU FAM26E (11764081_at) / Fold change /veh FAM26E (11764081_at) / RFU ISYNA1 (11749810_s_at) / Fold change /veh ISYNA1 (11749810_s_at) / RFU ACY1 (11761880_at) / Fold change /veh ACY1 (11761880_at) / RFU 11764098_at / Fold change /veh 11764098_at / RFU SAMD14 (11745864_x_at) / Fold change /veh SAMD14 (11745864_x_at) / RFU NPB (11741838_a_at) / Fold change /veh NPB (11741838_a_at) / RFU TMPRSS6 (11731388_a_at) / Fold change /veh TMPRSS6 (11731388_a_at) / RFU KRTAP10-2 (11738614_at) / Fold change /veh KRTAP10-2 (11738614_at) / RFU ARHGAP8 /// PRR5-ARHGAP8 (11727945_x_at) / Fold change /veh ARHGAP8 /// PRR5-ARHGAP8 (11727945_x_at) / RFU KRTAP5-7 /// NADSYN1 (11734609_at) / Fold change /veh KRTAP5-7 /// NADSYN1 (11734609_at) / RFU RASL12 (11751679_a_at) / Fold change /veh RASL12 (11751679_a_at) / RFU CDKN2B (11736163_a_at) / Fold change /veh CDKN2B (11736163_a_at) / RFU PRF1 (11729649_at) / Fold change /veh PRF1 (11729649_at) / RFU, ZNF638 /// ZNF638-IT1 / Fold change vs veh, ZNF638 /// ZNF638-IT1 / RFU, PANK3 / Fold change vs veh, PANK3 / RFU, SH3YL1 / Fold change vs veh, SH3YL1 / RFU, ZEB2 / Fold change vs veh, ZEB2 / RFU, NRIP1 / Fold change vs veh, NRIP1 / RFU, PTTG1IP / Fold change vs veh, PTTG1IP / RFU, CAPN2 / Fold change vs veh, CAPN2 / RFU, MED14 / Fold change vs veh, MED14 / RFU, SNORA58 / Fold change vs veh, SNORA58 / RFU, C1orf63 / Fold change vs veh, C1orf63 / RFU, LRRFIP1 / Fold change vs veh, LRRFIP1 / RFU, NDUFAF7 / Fold change vs veh, NDUFAF7 / RFU, SLC12A2 / Fold change vs veh, SLC12A2 / RFU, IBTK / Fold change vs veh, IBTK / RFU, ESF1 / Fold change vs veh, ESF1 / Fold change vs veh, TMEM50B / RFU, TAOK1 / Fold change vs veh, TAOK1 / RFU, ACBD3 / Fold change vs veh, ACBD3 / RFU, TMA16 / Fold change vs veh, TMA16 / RFU, RWDD3 / Fold change vs veh, RWDD3 / RFU, BCAT1 / Fold change vs veh, BCAT1 / RFU, EDEM3 / Fold change vs veh, EDEM3 / RFU, TMEM33 / Fold change vs veh, TMEM33 / RFU, WDR75 / Fold change vs veh, WDR75 / RFU, AHCTF1 / Fold change vs veh, AHCTF1 / RFU, TFRC / Fold change vs veh, TFRC / RFU, ZDHHC17 / Fold change vs veh, ZDHHC17 / RFU, NOM1 / Fold change vs veh, NOM1 / RFU, ARL8B / Fold change vs veh, ARL8B / RFU, ZBTB11 / Fold change vs veh, ZBTB11 / RFU, TAMM41 / Fold change vs veh, TAMM41 / RFU, KIAA1704 /// LOC100996395 / Fold change vs veh, KIAA1704 /// LOC100996395 / RFU, ING1 / Fold change vs veh, ING1 / RFU, TRMT61B / Fold change vs veh, TRMT61B / RFU, FUBP3 / Fold change vs veh, FUBP3 / RFU, TP53 / Fold change vs veh, TP53 / RFU, TNKS2 / Fold change vs veh, TNKS2 / RFU, ZFP14 / Fold change vs veh, ZFP14 / RFU, ACTR2 / Fold change vs veh, ACTR2 / RFU, PPP3R1 / Fold change vs veh, PPP3R1 / RFU, PIK3R1 / Fold change vs veh, PIK3R1 / RFU, HNRNPA1 / Fold change vs veh, HNRNPA1 / RFU, RNF170 / Fold change vs veh, RNF170 / RFU, ZNF28 / Fold change vs veh, ZNF28 / RFU, RNGTT / Fold change vs veh, RNGTT / RFU, OGT / Fold change vs veh, OGT / RFU, BRD1 / Fold change vs veh, BRD1 / RFU, MARS / Fold change vs veh, MARS / RFU, ZNF655 / Fold change vs veh, ZNF655 / RFU, FAHD1 / Fold change vs veh, FAHD1 / RFU, BDP1 / Fold change vs veh, BDP1 / RFU, LRRCC1 / Fold change vs veh, LRRCC1 / RFU, ARID1A / Fold change vs veh, ARID1A / RFU, ZNF146 / Fold change vs veh, ZNF146 / RFU, ZNF330 / Fold change vs veh, ZNF330 / RFU, GPN3 / Fold change vs veh, GPN3 / RFU, C9orf123 / Fold change vs veh, C9orf123 / RFU, N4BP2L2 / Fold change vs veh, N4BP2L2 / RFU, ARFIP1 / Fold change vs veh, ARFIP1 / RFU, FAM179B / Fold change vs veh, FAM179B / RFU, BCL10 / Fold change vs veh, BCL10 / RFU, UHRF1BP1L / Fold change vs veh, UHRF1BP1L / RFU, BET1 / Fold change vs veh, BET1 / RFU, CNOT2 / Fold change vs veh, CNOT2 / RFU, ZNF268 / Fold change vs veh, ZNF268 / Fold change vs veh, ZNF507 / RFU, DGCR2 / Fold change vs veh, DGCR2 / RFU, WDSUB1 / Fold change vs veh, WDSUB1 / Fold change vs veh, HSP90B1 /// MIR3652 / RFU, ADSS / Fold change vs veh, ADSS / RFU, GK / Fold change vs veh, GK / RFU, ZNF148 / Fold change vs veh, ZNF148 / RFU, TAF9 / Fold change vs veh, TAF9 / RFU, SLC1A5 / Fold change vs veh, SLC1A5 / RFU, SLMO2 / Fold change vs veh, SLMO2 / RFU, ABCC4 / Fold change vs veh, ABCC4 / RFU, LOC101060439 /// RAP1B / Fold change vs veh, LOC101060439 /// RAP1B / RFU, RFX7 / Fold change vs veh, RFX7 / RFU, GTPBP10 / Fold change vs veh, GTPBP10 / RFU, CNEP1R1 / Fold change vs veh, CNEP1R1 / RFU, BIVM-ERCC5 /// ERCC5 / Fold change vs veh, BIVM-ERCC5 /// ERCC5 / RFU, ILF3 / Fold change vs veh, ILF3 / RFU 11762660_at / Fold change /veh 11762660_at / RFU VCAN (11757783_s_at) / Fold change /veh VCAN (11757783_s_at) / RFU DDX43 (11728927_at) / Fold change /veh DDX43 (11728927_at) / RFU KRT8 (11758188_x_at) / Fold change /veh KRT8 (11758188_x_at) / RFU NKD1 (11759106_at) / Fold change /veh NKD1 (11759106_at) / RFU SRD5A1 (11742802_a_at) / Fold change /veh SRD5A1 (11742802_a_at) / RFU TPSAB1 /// TPSB2 (11721975_s_at) / Fold change /veh TPSAB1 /// TPSB2 (11721975_s_at) / RFU GSTM3 (11746129_a_at) / Fold change /veh GSTM3 (11746129_a_at) / RFU IL23R (11737362_x_at) / Fold change /veh IL23R (11737362_x_at) / RFU TMEM51 (11727254_a_at) / Fold change /veh TMEM51 (11727254_a_at) / RFU PIWIL2 (11732686_x_at) / Fold change /veh PIWIL2 (11732686_x_at) / RFU ORM1 (11744905_x_at) / Fold change /veh ORM1 (11744905_x_at) / RFU CCDC152 (11743942_at) / Fold change /veh CCDC152 (11743942_at) / RFU ECM1 (11717891_a_at) / Fold change /veh ECM1 (11717891_a_at) / RFU IL23R (11748794_a_at) / Fold change /veh IL23R (11748794_a_at) / RFU TNFAIP8L3 (11732012_x_at) / Fold change /veh TNFAIP8L3 (11732012_x_at) / RFU MBOAT4 (11741988_at) / Fold change /veh MBOAT4 (11741988_at) / RFU 11764193_at / Fold change /veh 11764193_at / RFU TMEM53 (11763286_at) / Fold change /veh TMEM53 (11763286_at) / RFU MAGEB2 (11727129_at) / Fold change /veh MAGEB2 (11727129_at) / RFU TMEM200A (11744735_a_at) / Fold change /veh TMEM200A (11744735_a_at) / RFU CCDC152 (11751479_a_at) / Fold change /veh CCDC152 (11751479_a_at) / RFU FAM211A (11726209_a_at) / Fold change /veh FAM211A (11726209_a_at) / RFU RGS16 (11746705_a_at) / Fold change /veh RGS16 (11746705_a_at) / RFU VCAN (11755009_s_at) / Fold change /veh VCAN (11755009_s_at) / RFU RHOB (11743442_s_at) / Fold change /veh RHOB (11743442_s_at) / RFU RGS16 (11720943_a_at) / Fold change /veh RGS16 (11720943_a_at) / RFU RGS16 (11720944_at) / Fold change /veh RGS16 (11720944_at) / RFU, VPS4B / Fold change vs veh, VPS4B / RFU, CREB1 / Fold change vs veh, CREB1 / RFU, DNAJC13 / Fold change vs veh, DNAJC13 / RFU, GNAQ / Fold change vs veh, GNAQ / RFU, CDK5R1 / Fold change vs veh, CDK5R1 / RFU, ZRANB3 / Fold change vs veh, ZRANB3 / RFU, CUL4A / Fold change vs veh, CUL4A / RFU, CCNY / Fold change vs veh, CCNY / RFU, UFL1 / Fold change vs veh, UFL1 / RFU, COG3 / Fold change vs veh, COG3 / RFU, DIAPH2 / Fold change vs veh, DIAPH2 / RFU, SKA2 / Fold change vs veh, SKA2 / RFU, AFF3 / Fold change vs veh, AFF3 / RFU, LMF1 / Fold change vs veh, LMF1 / RFU, IPO11 / Fold change vs veh, IPO11 / RFU, DFFB / Fold change vs veh, DFFB / RFU, FOXP1 / Fold change vs veh, FOXP1 / RFU, CARD8 / Fold change vs veh, CARD8 / RFU, STRN3 / Fold change vs veh, STRN3 / RFU, ADK / Fold change vs veh, ADK / RFU, RASSF2 / Fold change vs veh, RASSF2 / RFU, WIPF1 / Fold change vs veh, WIPF1 / RFU, LARP1B / Fold change vs veh, LARP1B / RFU, RASA1 / Fold change vs veh, RASA1 / RFU, RB1 / Fold change vs veh, RB1 / RFU, PPFIA1 / Fold change vs veh, PPFIA1 / RFU, MAT2A / Fold change vs veh, MAT2A / RFU, CCT5 / Fold change vs veh, CCT5 / RFU, WDR92 / Fold change vs veh, WDR92 / RFU, CUX1 / Fold change vs veh, CUX1 / RFU, TTC7A / Fold change vs veh, TTC7A / RFU, TMEM135 / Fold change vs veh, TMEM135 / RFU, DEPTOR / Fold change vs veh, DEPTOR / RFU, CPM / Fold change vs veh, CPM / RFU, DNAJB6 / Fold change vs veh, DNAJB6 / RFU, CACNA2D3 / Fold change vs veh, CACNA2D3 / RFU, DTX4 / Fold change vs veh, DTX4 / RFU, TFCP2 / Fold change vs veh, TFCP2 / RFU, GMCL1 /// GMCL1P1 / Fold change vs veh, GMCL1 /// GMCL1P1 / RFU, AEBP2 / Fold change vs veh, AEBP2 / RFU, SNHG1 /// SNORD22 /// SNORD25 /// SNORD26 /// SNORD27 /// SNORD28 /// SNORD29 /// SNORD31 / Fold change vs veh, SNHG1 /// SNORD22 /// SNORD25 /// SNORD26 /// SNORD27 /// SNORD28 /// SNORD29 /// SNORD31 / Fold change (Aza/veh), C12orf56 (ProbeSet 11735607_a_at) / Fold change (ACY-1035/veh), C12orf56 (ProbeSet 11735607_a_at) / Fold change (Aza/veh), FGFR1OP (ProbeSet 11751329_s_at) / Fold change (ACY-1035/veh), FGFR1OP (ProbeSet 11751329_s_at) / Fold change (Aza/veh), VPS36 (ProbeSet 11739960_a_at) / Fold change (ACY-1035/veh), VPS36 (ProbeSet 11739960_a_at) / RFU SYPL1 (11715823_x_at) / Fold change /veh SYPL1 (11715823_x_at) / RFU IGFBP7 (11715501_s_at) / Fold change /veh IGFBP7 (11715501_s_at) / RFU REEP3 (11722064_at) / Fold change /veh REEP3 (11722064_at) / RFU IGLL1 (11728026_x_at) / Fold change /veh IGLL1 (11728026_x_at): dose or concentration left out as unconfirmed
Details: MV-4-11 cells, 48 hours

Nc1ccc(-c2cccs2)cc1NC(=O)c1ccc2c(c1)cc(C1CC1)n2CCN1CCOCC1 [ACY-1035]
RFU CCDC152 (11743942_at): 5.45 RFU
